Values quoted from earlier work, collected in patent US20060240013A1, “Diagnostics and therapeutics for diseases associated with bile acid g-protein-coupled receptor 37 (bg37)” (BAYER HEALTHCARE AG, priority 2002, published 2006).

Molecular target: T1, BG37 receptor (Homo sapiens, UniProt Q8TDU6)
T1 sequence (Q8TDU6 1-330): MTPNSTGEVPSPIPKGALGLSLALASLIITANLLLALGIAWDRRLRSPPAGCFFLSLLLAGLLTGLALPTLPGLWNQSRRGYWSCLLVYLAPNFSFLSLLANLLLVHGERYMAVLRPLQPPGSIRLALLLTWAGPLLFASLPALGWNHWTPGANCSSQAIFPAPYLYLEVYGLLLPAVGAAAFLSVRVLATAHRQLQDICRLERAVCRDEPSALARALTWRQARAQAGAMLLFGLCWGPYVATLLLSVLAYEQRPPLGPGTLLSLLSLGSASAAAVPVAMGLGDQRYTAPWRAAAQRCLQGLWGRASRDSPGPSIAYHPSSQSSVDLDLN
Settings: intracellular cAMP levels modulated through BG37 receptor; Maruyama et al. (2002)

SMILES | rank order of potency of bile acids
C[C@H](CCC(=O)O)[C@H]1CC[C@H]2[C@@H]3[C@H](O)C[C@@H]4C[C@H](O)CC[C@]4(C)[C@H]3CC[C@]12C [chenodeoxycholic acid] | lithocholic acid>deoxycholic acid>chenodeoxycholic acid>cholic acid
C[C@H](CCC(=O)O)[C@H]1CC[C@H]2[C@@H]3[C@H](O)C[C@@H]4C[C@H](O)CC[C@]4(C)[C@H]3C[C@H](O)[C@]12C [cholic acid] | lithocholic acid>deoxycholic acid>chenodeoxycholic acid>cholic acid
